# Patent publication US5952307A, “Basic α-aminoalkylphosphonate derivatives” (priority 1997, dated 1999)
# Like-named read-outs stand apart in the source and are kept apart here.
# Experiments:
# Type in all cases: biochemical
# bovine trypsin [1] = target: T1, bovine trypsin (Bos taurus, UniProt P00760); assay: Inactivation rate of bovine trypsin, incubation method; settings: Table III; enzyme 0.06-0.5 μM, inhibitor 0.25-42 μM, 9% DMSO, 25° C.; NI = no inhibition
# T1 sequence (P00760 24-246): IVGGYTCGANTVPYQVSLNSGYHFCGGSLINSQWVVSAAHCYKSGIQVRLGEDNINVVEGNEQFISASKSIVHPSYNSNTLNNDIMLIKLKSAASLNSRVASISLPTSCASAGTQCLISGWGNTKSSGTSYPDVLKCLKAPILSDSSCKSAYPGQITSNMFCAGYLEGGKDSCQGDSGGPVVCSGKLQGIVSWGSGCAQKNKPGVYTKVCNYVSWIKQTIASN
# urokinase = urokinase (Homo sapiens, UniProt P00749); assay: Inactivation rate of urokinase, incubation method; settings: Table III; enzyme 0.06-0.5 μM, inhibitor 0.25-42 μM, 9% DMSO, 25° C.; NI = no inhibition
# Description: (§1) Inactivation rates of serine proteases by aryl diesters of peptidyl derivatives of α-aminoalkylphosphonates were measured by the incubation method. An aliquot of inhibitor (25 or 50 μl) in Me2 SO was added to a buffered enzyme solution (0.01-2.3 μM) to initiate the inactivation. Aliquots (50 μl) were withdrawn at various intervals and the residual enzymatic activity was measured. Me2 SO concentration in the reaction mixture was 8-12% (v/v). A 0.1 M HEPES, 0.01 M CaCl2, pH 7.5 buffer was utilized for trypsin and trypsin-like enzymes. A 0.1 M HEPES, 0.5 M NaCl, pH 7.5, was utilized for the other serine proteases. Peptide thioesters or peptide nitroanilides with the appropriate sequences were used as substrates for various serine proteases. All peptide thioesters hydrolysis rates were measured with the assay mixture containing 4,4'-dithiodipyridine {ε324 =19800 M^-1 cm^-1; Grasetti & Murray, Arch. Biochem. Biophys. 1967, 119, 41-48}. Peptide 4-nitroanilide hydrolysis was measured at 410 nm {ε410 =8800 M^-1 cm^-1; Erlanger et al., Arch. Biochem. Biophys. 1961, 95, 271-278}. First order inactivation rate constants (Kobs) were obtained from plots of In vt /vo vs time, and the correlation coefficients were greater then 0.98.
# (§2) ^a Enzyme (0.06-0.5 μM) was incubated with the inhibitor (0.25-42
# (§3) μM) in 250 μL of the proper buffer containing 9% DMSO at 25°
# (§4) C. The final inhibition reaction mixtures are given in the footnote to
# (§5) Table 1. Aliquots of 25 μL were withdrawn at various intervals and the
# (§6) residual enzymatic activity was measured as described in experimental
# (§7) section. The kobs values were calculated from pseudofirst-order
# plasmin = target: T2, plasmin (Homo sapiens, UniProt P00747); assay: Inactivation rate of plasmin, incubation method; settings: Table III; enzyme 0.06-0.5 μM, inhibitor 0.25-42 μM, 9% DMSO, 25° C.; NI = no inhibition
# T2 construct: factor Xa, plasmin, and urokinase
# Description: as §1, §2, §3, §4, §5, §6, §7
# ^b Inhibitor concentration of 0.24 mM.
# mast cell tryptase = mast cell tryptase (Homo sapiens, UniProt Q15661); assay: Inactivation rate of mast cell tryptase, incubation method; settings: for kobs /[I] mast cell tryptase: 25° C., NI = no inhibition; for kobsd /[I] mast cell tryptase: Table I, 0.1M Hepes, 10% glycerol, 10 mM heparin, pH 7.5, 25° C., 7.1% DMSO, NI = no inhibition after 25 min of incubation
# Procedure, shortened: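 Incubation method at 25 °C: 0.07 μM tryptase with 20–66 μM inhibitor in Hepes pH 7.5 containing heparin, glycerol and DMSO. Aliquots were withdrawn at intervals for residual activity on Z-Arg-SBzl or Z-Lys-SBzl with DTNB. Pseudo-first-order kobs came from ln(vt/v0) versus time.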
# human thrombin = target: T3, human thrombin (Homo sapiens, UniProt P00734); settings: 25° C., NI = no inhibition
# T3 construct: bovine trypsin, human thrombin
# Procedure, shortened: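 Irreversible inactivation followed by incubation method at 25 °C: 0.07 μM thrombin with 0.25–42 μM inhibitor in 80 mM Hepes pH 7.5, 428 mM NaCl, 8% DMSO. Residual activity of withdrawn aliquots measured with thioester or 4-nitroanilide substrates; kobs from pseudo-first-order fits.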
# rat granzyme A = assay: Inactivation rate of rat granzyme A, incubation method; settings: Table I; 0.1M Hepes, 0.01M CaCl2 pH 7.5, 25° C., 7.6% DMSO, substrate Z--Arg--SBzl
# Description: as §1
# ^a Inhibition constants were measured in 0.1M Hepes, 0.01M CaCl2
# pH 7.5 for trypsin, granzymes A, and K, and in 0.1M Hepes, 10% glycerol,
# 10 mM heparin, pH 7.5 for mast cell tryptase, and at 25° C. The
# reaction mixtures contained 2% DMSO for trypsin, 7.6% for granzyme A, and
# 7.1% for granzyme K and tryptase. The substrate was Z--Arg--SBzl for
# granzymes and trypsin, and Z--Arg--SBzl or Z--Lys--SBzl for tryptase in
# the presence of DTNB. The inhibitor # concentration ranged from 0.001 to
# ^b NI, no inhibition after 25 min of incubation with enzyme.
# human granzyme A = target: T4, human granzyme A (Homo sapiens, UniProt P12544); assay: Inactivation rate of human granzyme A, incubation method; settings: Table I; 0.1M Hepes, 0.01M CaCl2 pH 7.5, 25° C., 7.6% DMSO, substrate Z--Arg--SBzl
# T4 sequence (P12544 29-262): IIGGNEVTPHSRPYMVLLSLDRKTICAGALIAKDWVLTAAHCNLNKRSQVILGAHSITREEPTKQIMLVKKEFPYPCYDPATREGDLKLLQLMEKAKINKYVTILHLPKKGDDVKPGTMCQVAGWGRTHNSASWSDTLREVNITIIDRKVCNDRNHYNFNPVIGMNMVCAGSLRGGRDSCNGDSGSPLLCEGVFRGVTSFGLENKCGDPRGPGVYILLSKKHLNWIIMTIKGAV
# Procedure, shortened: (§8)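 Inhibitor in DMSO added to enzyme (0.01-2.3 μM) in 0.1 M HEPES, 0.01 M CaCl2, pH 7.5, 25° C (DMSO 7.6% for granzyme A, 7.1% for granzyme K); residual activity on Z-Arg-SBzl with DTNB read at intervals. Kobs from ln vt/vo vs time plots.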
# bovine trypsin [2] = target: T1, bovine trypsin; assay: Inactivation rate of bovine trypsin, incubation method; settings: for kobsd /[I] bovine trypsin: Table I, 0.1M Hepes, 0.01M CaCl2 pH 7.5, 25° C., 2% DMSO, substrate Z--Arg--SBzl, NI = no inhibition after 25 min; for kobs /[I] bovine trypsin: Table II, 0.13 μM trypsin, 0.25-42 μM inhibitor, 80 mM Hepes pH 7.5, 1 mM CaCl2, 8% DMSO, 25° C., NI = no inhibition
# Procedure, shortened: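 Incubation method: trypsin pre-incubated with inhibitor (0.25-42 μM) at 25° C in 80 mM Hepes, 1 mM CaCl2, pH 7.5, 8% DMSO; aliquots withdrawn over time for residual activity on Z-Arg-SBzl thioester with DTNB or 4,4'-dithiodipyridine. Pseudo-first-order kobs from ln vt/vo versus time.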
# rat granzyme K = target: T5, rat granzyme K (Rattus norvegicus, UniProt P49864); assay: Inactivation rate of rat granzyme K, incubation method; settings: Table I; 0.1M Hepes, 0.01M CaCl2 pH 7.5, 25° C., 7.1% DMSO, substrate Z--Arg--SBzl; NI = no inhibition after 25 min of incubation
# T5 sequence (P49864 26-258): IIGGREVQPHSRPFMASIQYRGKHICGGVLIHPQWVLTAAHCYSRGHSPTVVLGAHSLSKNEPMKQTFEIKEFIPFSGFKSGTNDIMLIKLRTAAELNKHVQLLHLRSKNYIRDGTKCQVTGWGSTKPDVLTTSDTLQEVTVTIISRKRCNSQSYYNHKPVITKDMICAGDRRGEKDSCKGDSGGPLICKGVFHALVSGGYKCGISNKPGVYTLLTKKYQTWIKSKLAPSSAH
# Procedure, shortened: as §8
# [3] = Table III, enzyme 0.06-0.5 μM, inhibitor 0.25-42 μM, 9% DMSO
# [4] = Table II, 0.07 μM tryptase, 20-66 μM inhibitor, Hepes pH 7.5, heparin, 9% glycerol, 8% DMSO
# [5] = Table II, 0.07 μM thrombin, 0.25-42 μM inhibitor, 80 mM Hepes pH 7.5, 428 mM NaCl, 8% DMSO
# Chain of mast cell tryptase (Q15661 31-275): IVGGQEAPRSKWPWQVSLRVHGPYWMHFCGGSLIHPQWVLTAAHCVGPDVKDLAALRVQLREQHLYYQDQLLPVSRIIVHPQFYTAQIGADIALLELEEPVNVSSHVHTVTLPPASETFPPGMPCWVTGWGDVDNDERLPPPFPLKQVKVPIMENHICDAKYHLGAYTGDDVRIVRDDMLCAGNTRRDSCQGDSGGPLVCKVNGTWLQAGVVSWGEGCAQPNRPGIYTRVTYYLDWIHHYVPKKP
# T2 sequence (P00747 581-810 limits assumed, species assumed): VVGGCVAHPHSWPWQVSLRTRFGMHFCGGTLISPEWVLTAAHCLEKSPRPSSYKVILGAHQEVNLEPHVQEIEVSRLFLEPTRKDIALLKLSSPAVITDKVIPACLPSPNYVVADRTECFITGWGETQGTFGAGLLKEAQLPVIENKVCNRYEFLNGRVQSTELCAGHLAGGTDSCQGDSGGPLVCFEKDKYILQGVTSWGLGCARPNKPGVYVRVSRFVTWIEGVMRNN
# T2 sequence (P00747 97-580 partner limits assumed, species assumed): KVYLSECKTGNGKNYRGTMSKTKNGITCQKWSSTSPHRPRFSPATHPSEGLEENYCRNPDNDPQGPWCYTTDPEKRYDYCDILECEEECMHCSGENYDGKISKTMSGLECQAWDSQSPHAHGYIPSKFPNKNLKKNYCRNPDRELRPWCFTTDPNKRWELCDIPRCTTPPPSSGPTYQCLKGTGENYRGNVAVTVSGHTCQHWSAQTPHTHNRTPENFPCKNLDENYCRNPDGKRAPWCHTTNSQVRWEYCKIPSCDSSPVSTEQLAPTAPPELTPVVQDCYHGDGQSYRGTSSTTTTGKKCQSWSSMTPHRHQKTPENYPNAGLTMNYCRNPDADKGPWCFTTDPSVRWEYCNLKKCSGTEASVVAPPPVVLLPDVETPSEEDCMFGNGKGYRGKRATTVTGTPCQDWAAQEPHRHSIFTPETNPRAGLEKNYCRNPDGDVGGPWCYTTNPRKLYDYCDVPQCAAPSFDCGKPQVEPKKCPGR
Compound,kobs /[I] bovine trypsin (bovine trypsin [1]),kobs /[I] urokinase (urokinase) [M⁻¹ s⁻¹],kobs /[I] plasmin (plasmin) [M⁻¹ s⁻¹],kobs /[I] mast cell tryptase (mast cell tryptase; [3]),kobs /[I] human thrombin (human thrombin; [3]),kobsd /[I] mast cell tryptase (mast cell tryptase) [M⁻¹ s⁻¹],kobs /[I] mast cell tryptase (mast cell tryptase; [4]) [M⁻¹ s⁻¹],kobsd /[I] rat granzyme A (rat granzyme A) [M⁻¹ s⁻¹],kobsd /[I] human granzyme A (human granzyme A) [M⁻¹ s⁻¹],kobs /[I] human thrombin (human thrombin; [5]),kobsd /[I] bovine trypsin (bovine trypsin [2]) [M⁻¹ s⁻¹],kobs /[I] bovine trypsin (bovine trypsin [2]),kobsd /[I] rat granzyme K (rat granzyme K) [M⁻¹ s⁻¹]
CC(C)(C)OC(=O)NC(Cc1ccccc1)C(=O)N1CCCC1C(=O)NC(CCCCN)P(=O)(Oc1ccccc1)Oc1ccccc1 (mixture of isomers) [Boc--D--Phe--Pro--Lys^P (OPh)2],"28,840 ± 1,800 M^-1 s^-1",38 ± 3,51 ± 4,68 ± 4 M⁻¹ s⁻¹,"9,364 ± 110 M^-1 s^-1",,,,,,,,
CC(O)C(NC(=O)OCc1ccccc1)C(=O)NC(CCCCN)P(=O)(Oc1ccccc1)Oc1ccccc1 (mixture of isomers) [Cbz--Thr--Lys^P (OPh)2],230 M⁻¹ s⁻¹,0.7 ± 0.1,,7 ± 1 M⁻¹ s⁻¹,,,,,,,,,
NCCCCCC(NC(=O)C1CCCN1C(=O)C(N)Cc1ccccc1)P(=O)(Oc1ccccc1)Oc1ccccc1 (mixture of isomers) [D--Phe--Pro-HomoLys^P (OPh)2],164 ± 14 M⁻¹ s⁻¹,7.8 ± 0.0,,4.1 0.2 M^-1 s^-1,"1,342 ± 272 M^-1 s^-1",,,,,,,,
NCCCCC(NC(=O)C1CCCN1C(=O)CNS(=O)(=O)Cc1ccccc1)P(=O)(Oc1ccccc1)Oc1ccccc1 (mixture of isomers) [PhCH2 SO2 --Gly--Pro--Lys^P (OPh)2],"12,472 ± 1,400 M^-1 s^-1",39 ± 2,13 ± 1,24 ± 0 M⁻¹ s⁻¹,649 ± 14 M⁻¹ s⁻¹,,,,,,,,
NCCCCCC(NC(=O)C1CCCN1C(=O)CNS(=O)(=O)Cc1ccccc1)P(=O)(Oc1ccccc1)Oc1ccccc1 (mixture of isomers) [PhCH2 SO2 Gly--Pro-HomoLys^P (OPh)2],528 ± 59 M⁻¹ s⁻¹,38 ± 3,8.4 ± 0.2,32 ± 2 M⁻¹ s⁻¹,137 ± 12 M⁻¹ s⁻¹,,,,,,,,
"Cl.N=C(N)c1ccc(C(NC(=O)c2ccccc2Oc2ccccc2)P(=O)(Oc2ccccc2)Oc2ccccc2)cc1 (stereo not drawn) [2-Phenoxybenzoyl-(4-AmPhGly)^P (OPh)2, Diphenyl N-(2-Phenoxybenzoyl)amino(4-amidinophenyl)methanephosphonate Hydrochloride]",,,,,,0.4,0.4,340 ± 1,540 ± 3,270 ± 20 M⁻¹ s⁻¹,670 ± 53,670 ± 53 M⁻¹ s⁻¹,1
C[C@H](NC(=O)OCc1ccccc1)C(=O)N[C@@H](C)C(=O)NC(c1ccc(C(=N)N)cc1)P(=O)(Oc1ccccc1)Oc1ccccc1 (stereo partly drawn) [Cbz--Ala--Ala-(4-AmPhGly)^P (OPh)2],,,,,,2,2 ± 0,480 ± 27,820 ± 29,"3,030 ± 222 M^-1 s^-1",3620 ± 588,"3,620 ± 588 M^-1 s^-1",5
Cl.N=C(N)c1ccc(C(NC(=O)C=Cc2cccs2)P(=O)(Oc2ccccc2)Oc2ccccc2)cc1 (stereo not drawn) [Diphenyl N-(3-(2-Thienyl)acryloyl)amino(4-amidinophenyl)methanephosphonate Hydrochloride],,,,,,1,1,430 ± 31,740 ± 18,90 ± 4 M⁻¹ s⁻¹,300 ± 22,300 ± 22 M⁻¹ s⁻¹,4
"Cl.N=C(N)c1ccc(C(NC(=O)/C=C/c2ccccc2)P(=O)(Oc2ccccc2)Oc2ccccc2)cc1 (stereo not drawn) [trans-Cinnamoyl-(4-AmPhGly)^P (OPh)2, Diphenyl N-(trans-Cinnamoyl)amino(4-amidinophenyl)methanephosphonate Hydrochloride]",,,,,,0.3,0.3,340 ± 18,400 ± 10,20 ± 1 M⁻¹ s⁻¹,110 ± 1,110 ± 1 M⁻¹ s⁻¹,3
Diphenyl N-(N-Benzyloxycarbonyl)amino(6-aminohexyl)methanephosphonate [Cbz-HomoLys^P (OPh)2],21 ± 6 M⁻¹ s⁻¹,1.0 ± 0.0,,0.7 M⁻¹ s⁻¹,,,,,,,,,
